Several values for one entry are separate records, joined by “and”; a condition that tells them apart may be missing. Identical values can stand only once. Values belong to the compound of their own block, whether it stands above or below them.
Test system: 855422-203-R-J1-PDC complex spheroid growth
Assay: Anticancer human tumor 855422-203-R-J1-PDC patient-derived bladder carcinoma cell line growth inhibition [AhR]
Conditions: for viability, T/C: stronger effect = lower value
Outline: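 Spheroids combined tumor cells with HUVEC endothelial cells and human MSCs as stroma. AhR antagonists were paired with standard or investigational drugs, each dosed in half-log steps down from near clinical Cmax, or from 10 microM where Cmax was unknown.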

[1] = curve of first compound, second compound 0.1 µM
[2] = curve of first compound, second compound 0.316 µM
[3] = curve of first compound, second compound 1 µM
[4] = curve of first compound, second compound 3.16 µM
[5] = curve of first compound, second compound 10 µM
[6] = second compound 0.1 µM, first compound 0.0316 µM
[7] = second compound 0.1 µM, first compound 0.1 µM
[8] = second compound 0.1 µM, first compound 0.316 µM
[9] = second compound 0.1 µM, first compound 1 µM
[10] = second compound 0.1 µM, first compound 3.16 µM
[11] = second compound 0.1 µM, first compound 10 µM
[12] = second compound 0.316 µM, first compound 0.0316 µM
[13] = second compound 0.316 µM, first compound 0.1 µM
[14] = second compound 0.316 µM, first compound 0.316 µM
[15] = second compound 0.316 µM, first compound 1 µM
[16] = second compound 0.316 µM, first compound 3.16 µM
[17] = second compound 0.316 µM, first compound 10 µM
[18] = second compound 1 µM, first compound 0.0316 µM
[19] = second compound 1 µM, first compound 0.1 µM
[20] = second compound 1 µM, first compound 0.316 µM
[21] = second compound 1 µM, first compound 1 µM
[22] = second compound 1 µM, first compound 3.16 µM
[23] = second compound 1 µM, first compound 10 µM
[24] = second compound 3.16 µM, first compound 0.0316 µM
[25] = second compound 3.16 µM, first compound 0.1 µM
[26] = second compound 3.16 µM, first compound 0.316 µM
[27] = second compound 3.16 µM, first compound 1 µM
[28] = second compound 3.16 µM, first compound 3.16 µM
[29] = second compound 3.16 µM, first compound 10 µM
[30] = second compound 10 µM, first compound 0.0316 µM
[31] = second compound 10 µM, first compound 0.1 µM
[32] = second compound 10 µM, first compound 0.316 µM
[33] = second compound 10 µM, first compound 1 µM
[34] = second compound 10 µM, first compound 3.16 µM
[35] = second compound 10 µM, first compound 10 µM
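Note: spheroids exposed to agents for seven days before readout.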
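Throughout, for viability, T/C: percent of DMSO vehicle control luminescence viability.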

IC50 [1]: 6.82 µM
IC50 [2]: 6.89 µM
IC50 [3]: 7.01 µM
IC50 [4]: 6.66 µM
IC50 [5]: 4.83 µM
Structure (SMILES): CC1(C)CCC(CN2CCN(c3ccc(C(=O)NS(=O)(=O)c4ccc(NCC5CCOCC5)c([N+](=O)[O-])c4)c(Oc4cnc5[nH]ccc5c4)c3)CC2)=C(c2ccc(Cl)cc2)C1 + Cc1ccccc1N=Nc1ccc(NC(=O)c2ccnn2C)c(C)c1
viability, T/C [6]: 102%
viability, T/C [7]: 114%
viability, T/C [8]: 101%
viability, T/C [9]: 107%
viability, T/C [10]: 110%
viability, T/C [11]: 21.8%
viability, T/C [12]: 105%
viability, T/C [13]: 106%
viability, T/C [14]: 102%
viability, T/C [15]: 114%
viability, T/C [16]: 106%
viability, T/C [17]: 23.1%
viability, T/C [18]: 108%
viability, T/C [19]: 116%
viability, T/C [20]: 102%
viability, T/C [21]: 106%
viability, T/C [22]: 116%
viability, T/C [23]: 23.4%
viability, T/C [24]: 95.8%
viability, T/C [25]: 102%
viability, T/C [26]: 105%
viability, T/C [27]: 105%
viability, T/C [28]: 98.2%
viability, T/C [29]: 23.6%
viability, T/C [30]: 94.1%
viability, T/C [31]: 83.5%
viability, T/C [32]: 89%
viability, T/C [33]: 85.6%
viability, T/C [34]: 62.9%
viability, T/C [35]: 27.7%

IC50 [1]: 6.14 µM
IC50 [2]: 5.81 µM
IC50 [3]: 5.45 µM
IC50 [4]: 4.53 µM
IC50 [5]: < 0.0316 µM
Structure (SMILES): CC1(C)CCC(CN2CCN(c3ccc(C(=O)NS(=O)(=O)c4ccc(NCC5CCOCC5)c([N+](=O)[O-])c4)c(Oc4cnc5[nH]ccc5c4)c3)CC2)=C(c2ccc(Cl)cc2)C1 + Cc1cncc(-c2nc(NCCc3c[nH]c4ccccc34)c3ncn(C(C)C)c3n2)c1
viability, T/C [6]: 93.9%
viability, T/C [7]: 92.2%
viability, T/C [8]: 98.1%
viability, T/C [9]: 117%
viability, T/C [10]: 108%
viability, T/C [11]: 11.9%
viability, T/C [12]: 94.2%
viability, T/C [13]: 91.1%
viability, T/C [14]: 85.8%
viability, T/C [15]: 90.3%
viability, T/C [16]: 98.2%
viability, T/C [17]: 12.6%
viability, T/C [18]: 83%
viability, T/C [19]: 96.7%
viability, T/C [20]: 83.7%
viability, T/C [21]: 76.7%
viability, T/C [22]: 84.8%
viability, T/C [23]: 11.3%
viability, T/C [24]: 76.2%
viability, T/C [25]: 80.7%
viability, T/C [26]: 77.7%
viability, T/C [27]: 60.8%
viability, T/C [28]: 69.5%
viability, T/C [29]: 13.8%
viability, T/C [30]: 38%
viability, T/C [31]: 30.6%
viability, T/C [32]: 22.1%
viability, T/C [33]: 14.7%
viability, T/C [34]: 24.5%
viability, T/C [35]: 10.5%

IC50 (curve of compound): 0.00817 µM and 0.0207 µM and 0.0097 µM
Structure (SMILES): CCc1c2c(nc3ccc(O)cc13)-c1cc3c(c(=O)n1C2)COC(=O)[C@]3(O)CC
viability, T/C (compound 0.000949 µM): 96.8% and 105% and 92.3%
viability, T/C (compound 0.003 µM): 83.7% and 99.2% and 88.8%
viability, T/C (compound 0.00949 µM): 44.9% and 86.1% and 49.6%
viability, T/C (compound 0.03 µM): 14.9% and 32.5% and 16.6%
viability, T/C (compound 0.0949 µM): 8.05% and 16.5% and 9.46%
viability, T/C (compound 0.3 µM): 5.61% and 9.17% and 5.63%

IC50 (curve of compound): > 0.1 µM
Structure (SMILES): Cn1ncnc1C1c2n[nH]c(=O)c3cc(F)cc(c23)NC1c1ccc(F)cc1 (centres undefined)
viability, T/C (compound 0.000316 µM): 98.3% and 105% and 99%
viability, T/C (compound 0.001 µM): 92.9% and 104% and 110%
viability, T/C (compound 0.00316 µM): 86.6% and 106% and 105%
viability, T/C (compound 0.01 µM): 104% and 98.8% and 103%
viability, T/C (compound 0.0316 µM): 99.4% and 102% and 95.6%
viability, T/C (compound 0.1 µM): 82.4% and 101% and 98.5%

— PubChem BioAssay AID1919005 (Molecular Pharmacology Branch, DTP, NCI, 2023)
